Test results from ChEMBL document CHEMBL1140374, “2-n-Butyl-9-methyl-8-[1,2,3]triazol-2-yl-9H-purin-6-ylamine and analogues as A2A adenosine receptor antagonists. Design, synthesis, and pharmacological characterization” (J Med Chem, 2005).

Key:
[1] = biological target: Vesicular acetylcholine transporter (Homo sapiens, UniProt Q16572); assay: (§1) Percent inhibition against Acetylcholine transporter at 1 uM
Adenosine receptor A1 = biological target: T1, Adenosine receptor A1 (Homo sapiens, UniProt P30542); assay: biochemical
T1 sequence (P30542 whole entry): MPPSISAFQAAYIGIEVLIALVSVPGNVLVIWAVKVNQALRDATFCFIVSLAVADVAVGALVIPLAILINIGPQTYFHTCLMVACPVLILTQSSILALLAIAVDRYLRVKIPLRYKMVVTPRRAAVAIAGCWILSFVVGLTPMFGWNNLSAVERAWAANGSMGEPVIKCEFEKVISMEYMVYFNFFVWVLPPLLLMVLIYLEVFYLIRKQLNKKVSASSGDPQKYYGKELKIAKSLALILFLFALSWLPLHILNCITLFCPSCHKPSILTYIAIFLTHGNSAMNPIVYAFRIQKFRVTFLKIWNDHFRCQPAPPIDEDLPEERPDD

Adenosine receptor A2a = Adenosine receptor A2a (Homo sapiens, UniProt P29274); assay: biochemical
Adenosine receptor A2b = biological target: T2, Adenosine receptor A2b (Homo sapiens, UniProt P29275); assay: Binding affinity towards human Adenosine A2b receptor expressed in HEK293 cells using 5 nM [3H]DPCPX; assay type: cell-based
T2 sequence (P29275 whole entry): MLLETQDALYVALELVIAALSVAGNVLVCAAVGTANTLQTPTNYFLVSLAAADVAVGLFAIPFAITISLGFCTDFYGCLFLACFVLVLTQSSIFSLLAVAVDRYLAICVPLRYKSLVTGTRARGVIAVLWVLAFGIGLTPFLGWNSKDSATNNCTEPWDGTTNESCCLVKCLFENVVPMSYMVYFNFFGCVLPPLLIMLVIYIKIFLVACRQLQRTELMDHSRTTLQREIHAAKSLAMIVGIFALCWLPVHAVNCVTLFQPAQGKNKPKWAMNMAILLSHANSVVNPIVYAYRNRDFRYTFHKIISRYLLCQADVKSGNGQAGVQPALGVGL

[2] = biological target: Muscarinic acetylcholine receptor M3 (Homo sapiens) (UniProt P20309); assay: Percent inhibition against Muscarinic acetylcholine receptor M3 at 1 uM
Homo sapiens [3] = species: Homo sapiens; assay: (§2) Percent inhibition against P2Y Purinoceptor at 1 uM
[4] = biological target: Beta-2 adrenergic receptor (Homo sapiens) (UniProt P07550); assay: Percent inhibition against Beta-2 adrenergic receptor at 1 uM
[5] = biological target: Beta-1 adrenergic receptor (Homo sapiens) (UniProt P08588); conditions: 1 uM
[6] = biological target: Equilibrative nucleoside transporter 1 (Homo sapiens) (UniProt Q99808); assay: Percent inhibition against ADO transporter at 1 uM nonselective
[7] = biological target: T3, GABA-A receptor; anion channel (Homo sapiens) (UniProt P14867+P47870+P18507+P28472+P48169+Q99928+Q9UN88+P34903+O00591+O14764+Q8N1C3+P18505+P78334+P47869+P31644+Q16445); assay: Percent inhibition against central Benzodiazepine receptor at 1 uM; assay type: protein-complex assay
Homo sapiens [8] = species: Homo sapiens; assay: Percent inhibition against P2X Purinergic receptor at 1 uM; assay type: tissue-based
[9] = biological target: Serotonin 3 (5-HT3) receptor (Homo sapiens) (UniProt P46098+A5X5Y0+O95264+Q70Z44+Q8WXA8); conditions: 1 uM
[10] = biological target: D(4) dopamine receptor (Homo sapiens) (UniProt P21917); conditions: 1 uM
[11] = biological target: Sodium-dependent noradrenaline transporter (Homo sapiens) (UniProt P23975); assay: Percent inhibition against Norepinephrine transporter at 1 uM nonselective
[12] = biological target: T4, Glutamate [NMDA] receptor (Homo sapiens) (UniProt Q05586+Q12879+Q13224+O15399+O60391+Q14957+Q8TCU5); assay: Percent inhibition against NMDA receptor at a compound concentration of 1 uM; assay type: protein-complex assay
[13] = biological target: 5-hydroxytryptamine receptor 2A (Homo sapiens) (UniProt P28223); assay: Percent inhibition against 5-hydroxytryptamine 2A receptor at 1 uM
[14] = biological target: 5-hydroxytryptamine receptor 4 (Homo sapiens) (UniProt Q13639); assay: Percent inhibition against 5-hydroxytryptamine 4 receptor at 1 uM
[15] = biological target: 5-hydroxytryptamine receptor 2C (Homo sapiens) (UniProt P28335); assay: Percent inhibition against 5-hydroxytryptamine 2C receptor at 1 uM
[16] = biological target: 5-hydroxytryptamine receptor 1A (Homo sapiens) (UniProt P08908); assay: Percent inhibition against 5-hydroxytryptamine 1A receptor at 1 uM
[17] = biological target: GABA-B receptor (Homo sapiens) (UniProt Q9UBS5+O75899); assay: Percent inhibition against GABA-B receptor at 1 uM; assay type: protein-complex assay
[18] = biological target: Muscarinic acetylcholine receptor M5 (Homo sapiens) (UniProt P08912); assay: Percent inhibition against Muscarinic acetylcholine receptor M5 at 1 uM
Adenosine receptor A3 = Adenosine receptor A3 (Homo sapiens, UniProt P0DMS8); assay: Binding affinity towards human Adenosine A3 receptor expressed in HEK293 cells using 0.1 nM [3H]AB-MECA; assay type: cell-based
[19] = biological target: Opioid receptors; mu/kappa/delta (Homo sapiens) (UniProt P41145+P41143+P35372); conditions: at 1 µM
[20] = biological target: Glutamate receptor ionotropic AMPA (Homo sapiens) (UniProt P48058+P42263+P42262+P42261); assay: (§3) Percent inhibition against AMPA receptor at 1 uM; assay type: protein-complex assay
[21] = biological target: D(1B) dopamine receptor (Homo sapiens) (UniProt P21918); assay: Percent inhibition against Dopamine receptor D5 at 1 uM
[22] = biological target: Muscarinic acetylcholine receptor M2 (Homo sapiens) (UniProt P08172); conditions: 1 uM
[23] = biological target: 5-hydroxytryptamine receptor 6 (Homo sapiens) (UniProt P50406); assay: Percent inhibition against 5-hydroxytryptamine 6 receptor at 1 uM
[24] = biological target: Sodium-dependent serotonin transporter (Homo sapiens) (UniProt P31645); conditions: 1 uM
[25] = biological target: Muscarinic acetylcholine receptor M1 (Homo sapiens) (UniProt P11229); conditions: at 1 µM
[26] = biological target: Adrenergic receptor alpha-1 (Homo sapiens) (UniProt P35348+P25100+P35368); conditions: 1 uM
[27] = biological target: D(3) dopamine receptor (Homo sapiens) (UniProt P35462); assay: Percent inhibition against Dopamine receptor D3 at 1 uM
[28] = biological target: Muscarinic acetylcholine receptor M4 (Homo sapiens) (UniProt P08173); assay: Percent inhibition against Muscarinic acetylcholine receptor M4 at 1 uM
[29] = biological target: D(2) dopamine receptor (Homo sapiens) (UniProt P14416); conditions: 1 uM
[30] = biological target: T3, GABA-A receptor; anion channel (Homo sapiens); assay: (§4) Percent inhibition against GABAA receptor alpha at a compound concentration of 1 uM; assay type: protein-complex assay
[31] = biological target: Sodium-dependent dopamine transporter (Homo sapiens) (UniProt Q01959); conditions: 1 uM
[32] = biological target: 5-hydroxytryptamine receptor 5A (Homo sapiens) (UniProt P47898); conditions: 1 uM
[33] = biological target: T4, Glutamate [NMDA] receptor (Homo sapiens); assay: Percent inhibition against PCP receptor at 1 uM; assay type: protein-complex assay
[34] = biological target: D(1A) dopamine receptor (Homo sapiens) (UniProt P21728); conditions: 1 uM
[35] = biological target: Vesicular acetylcholine transporter (Homo sapiens) (UniProt Q16572); assay: as §1
[36] = biological target: Glutamate receptor ionotropic AMPA (Homo sapiens, UniProt P42261+P42262+P42263+P48058); assay: as §3; assay type: protein-complex assay
[37] = biological target: GABA-A receptor; anion channel; assay: as §4; assay type: protein-complex assay, Homo sapiens
[38] = as §2; set-up: species or system Homo sapiens

Sequence of Adenosine receptor A2a (P29274 whole entry): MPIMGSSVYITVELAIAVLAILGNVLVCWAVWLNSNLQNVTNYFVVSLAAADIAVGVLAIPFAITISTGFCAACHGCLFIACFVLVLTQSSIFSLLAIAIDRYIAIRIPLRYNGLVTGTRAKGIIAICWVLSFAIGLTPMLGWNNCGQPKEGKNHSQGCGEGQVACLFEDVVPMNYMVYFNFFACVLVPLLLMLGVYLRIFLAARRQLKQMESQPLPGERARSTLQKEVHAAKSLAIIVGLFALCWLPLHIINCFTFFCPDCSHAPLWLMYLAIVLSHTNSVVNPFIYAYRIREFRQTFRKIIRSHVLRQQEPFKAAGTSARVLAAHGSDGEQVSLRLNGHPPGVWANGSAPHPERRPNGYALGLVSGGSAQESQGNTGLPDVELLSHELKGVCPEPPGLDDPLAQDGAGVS
Sequence of 5-hydroxytryptamine receptor 2A (Homo sapiens) (P28223 whole entry): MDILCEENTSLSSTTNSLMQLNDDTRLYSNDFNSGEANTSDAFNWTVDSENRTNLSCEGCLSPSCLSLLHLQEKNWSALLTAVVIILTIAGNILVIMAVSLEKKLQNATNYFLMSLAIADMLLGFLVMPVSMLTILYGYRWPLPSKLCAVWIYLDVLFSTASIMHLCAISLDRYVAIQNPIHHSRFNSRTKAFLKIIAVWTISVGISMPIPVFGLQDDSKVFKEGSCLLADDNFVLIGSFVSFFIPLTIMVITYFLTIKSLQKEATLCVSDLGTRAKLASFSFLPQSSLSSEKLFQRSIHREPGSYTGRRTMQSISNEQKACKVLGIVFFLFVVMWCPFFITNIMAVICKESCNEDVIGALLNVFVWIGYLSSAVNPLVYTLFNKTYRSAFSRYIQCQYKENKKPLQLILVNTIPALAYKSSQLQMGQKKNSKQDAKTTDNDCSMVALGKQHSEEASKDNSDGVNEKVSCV
Sequence of 5-hydroxytryptamine receptor 2C (Homo sapiens) (P28335 whole entry): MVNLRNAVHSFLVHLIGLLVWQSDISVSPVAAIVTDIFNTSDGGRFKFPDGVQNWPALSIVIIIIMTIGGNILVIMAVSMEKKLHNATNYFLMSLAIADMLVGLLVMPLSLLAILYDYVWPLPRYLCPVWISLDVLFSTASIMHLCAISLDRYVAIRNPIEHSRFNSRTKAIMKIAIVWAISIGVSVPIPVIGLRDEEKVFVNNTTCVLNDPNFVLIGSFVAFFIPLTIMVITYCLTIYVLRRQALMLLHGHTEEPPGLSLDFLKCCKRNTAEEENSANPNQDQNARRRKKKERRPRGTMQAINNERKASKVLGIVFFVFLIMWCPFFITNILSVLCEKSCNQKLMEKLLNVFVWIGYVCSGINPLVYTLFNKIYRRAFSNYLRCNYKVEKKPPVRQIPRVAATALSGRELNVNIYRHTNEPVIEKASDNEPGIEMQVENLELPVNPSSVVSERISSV
Sequence of 5-hydroxytryptamine receptor 4 (Homo sapiens) (Q13639 whole entry): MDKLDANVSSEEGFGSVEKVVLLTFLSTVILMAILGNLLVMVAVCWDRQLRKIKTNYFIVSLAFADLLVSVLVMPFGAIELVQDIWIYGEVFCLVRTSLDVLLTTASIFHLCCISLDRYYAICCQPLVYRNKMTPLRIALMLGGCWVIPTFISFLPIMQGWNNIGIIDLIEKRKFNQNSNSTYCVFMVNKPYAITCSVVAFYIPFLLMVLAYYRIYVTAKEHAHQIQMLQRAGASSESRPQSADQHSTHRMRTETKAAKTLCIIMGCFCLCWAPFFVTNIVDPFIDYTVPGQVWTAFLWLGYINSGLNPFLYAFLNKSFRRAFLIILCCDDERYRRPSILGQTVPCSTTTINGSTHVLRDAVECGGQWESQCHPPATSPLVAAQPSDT
Sequence of Equilibrative nucleoside transporter 1 (Homo sapiens) (Q99808 whole entry): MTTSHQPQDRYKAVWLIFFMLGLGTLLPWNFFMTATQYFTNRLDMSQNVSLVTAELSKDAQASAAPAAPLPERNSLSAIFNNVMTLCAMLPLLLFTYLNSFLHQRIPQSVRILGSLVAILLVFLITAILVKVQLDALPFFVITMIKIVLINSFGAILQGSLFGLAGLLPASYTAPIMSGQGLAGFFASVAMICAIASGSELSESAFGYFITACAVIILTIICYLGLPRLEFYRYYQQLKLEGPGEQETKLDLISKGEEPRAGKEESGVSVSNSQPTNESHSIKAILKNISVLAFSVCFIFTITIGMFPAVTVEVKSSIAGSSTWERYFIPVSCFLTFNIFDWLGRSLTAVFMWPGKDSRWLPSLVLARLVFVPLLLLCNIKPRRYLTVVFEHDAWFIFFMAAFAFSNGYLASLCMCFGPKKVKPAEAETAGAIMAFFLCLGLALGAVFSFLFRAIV
Sequence of Sodium-dependent dopamine transporter (Homo sapiens) (Q01959 whole entry): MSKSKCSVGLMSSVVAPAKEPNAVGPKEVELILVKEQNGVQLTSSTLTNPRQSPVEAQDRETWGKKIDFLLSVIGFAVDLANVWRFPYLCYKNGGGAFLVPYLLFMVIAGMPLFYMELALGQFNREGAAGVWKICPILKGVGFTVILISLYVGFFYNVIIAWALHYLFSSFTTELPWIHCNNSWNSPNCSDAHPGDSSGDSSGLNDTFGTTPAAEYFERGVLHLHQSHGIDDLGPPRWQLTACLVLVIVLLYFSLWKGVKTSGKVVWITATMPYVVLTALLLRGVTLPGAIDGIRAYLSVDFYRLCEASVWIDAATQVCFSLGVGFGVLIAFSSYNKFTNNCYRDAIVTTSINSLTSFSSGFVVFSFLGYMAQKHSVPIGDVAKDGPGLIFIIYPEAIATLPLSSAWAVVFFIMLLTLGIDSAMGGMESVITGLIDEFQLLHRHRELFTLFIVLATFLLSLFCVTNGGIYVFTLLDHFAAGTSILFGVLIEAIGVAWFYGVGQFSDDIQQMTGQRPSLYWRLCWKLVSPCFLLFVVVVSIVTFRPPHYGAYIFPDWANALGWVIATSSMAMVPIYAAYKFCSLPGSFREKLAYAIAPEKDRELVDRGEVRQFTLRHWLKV
Sequence of Opioid receptors; mu/kappa/delta (Homo sapiens) (P35372 whole entry, looked up): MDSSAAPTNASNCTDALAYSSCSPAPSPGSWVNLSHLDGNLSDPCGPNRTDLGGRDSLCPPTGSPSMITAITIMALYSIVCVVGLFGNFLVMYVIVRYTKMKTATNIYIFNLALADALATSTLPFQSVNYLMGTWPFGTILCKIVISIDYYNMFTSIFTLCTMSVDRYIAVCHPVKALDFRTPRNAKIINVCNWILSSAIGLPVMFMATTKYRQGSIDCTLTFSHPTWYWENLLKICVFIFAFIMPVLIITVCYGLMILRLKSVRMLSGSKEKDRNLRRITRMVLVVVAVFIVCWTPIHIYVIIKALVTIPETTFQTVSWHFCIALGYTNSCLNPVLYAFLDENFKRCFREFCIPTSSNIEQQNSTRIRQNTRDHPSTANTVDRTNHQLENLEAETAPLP
Sequence of Opioid receptors; mu/kappa/delta (Homo sapiens) (P41143 whole entry, looked up): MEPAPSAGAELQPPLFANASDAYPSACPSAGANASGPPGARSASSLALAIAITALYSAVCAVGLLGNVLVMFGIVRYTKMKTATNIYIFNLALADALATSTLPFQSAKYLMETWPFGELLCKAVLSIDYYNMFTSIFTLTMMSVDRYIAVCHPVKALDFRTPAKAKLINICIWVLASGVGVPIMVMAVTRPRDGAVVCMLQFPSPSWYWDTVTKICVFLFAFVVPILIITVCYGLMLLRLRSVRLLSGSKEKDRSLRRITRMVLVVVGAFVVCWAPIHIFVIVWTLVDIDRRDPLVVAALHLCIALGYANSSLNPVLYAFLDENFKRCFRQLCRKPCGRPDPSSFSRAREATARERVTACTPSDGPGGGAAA
Sequence of Opioid receptors; mu/kappa/delta (Homo sapiens) (P41145 whole entry, looked up): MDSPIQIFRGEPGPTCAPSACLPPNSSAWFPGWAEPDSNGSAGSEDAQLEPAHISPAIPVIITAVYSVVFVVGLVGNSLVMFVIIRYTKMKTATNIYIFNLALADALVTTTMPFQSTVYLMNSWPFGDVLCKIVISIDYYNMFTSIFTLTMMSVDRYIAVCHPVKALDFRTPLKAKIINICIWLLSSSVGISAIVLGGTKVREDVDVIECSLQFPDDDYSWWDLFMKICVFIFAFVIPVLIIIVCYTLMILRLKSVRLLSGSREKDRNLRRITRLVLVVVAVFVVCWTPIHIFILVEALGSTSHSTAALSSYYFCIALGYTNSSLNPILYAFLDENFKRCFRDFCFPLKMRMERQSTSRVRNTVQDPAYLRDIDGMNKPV
Sequence of Muscarinic acetylcholine receptor M5 (Homo sapiens) (P08912 whole entry): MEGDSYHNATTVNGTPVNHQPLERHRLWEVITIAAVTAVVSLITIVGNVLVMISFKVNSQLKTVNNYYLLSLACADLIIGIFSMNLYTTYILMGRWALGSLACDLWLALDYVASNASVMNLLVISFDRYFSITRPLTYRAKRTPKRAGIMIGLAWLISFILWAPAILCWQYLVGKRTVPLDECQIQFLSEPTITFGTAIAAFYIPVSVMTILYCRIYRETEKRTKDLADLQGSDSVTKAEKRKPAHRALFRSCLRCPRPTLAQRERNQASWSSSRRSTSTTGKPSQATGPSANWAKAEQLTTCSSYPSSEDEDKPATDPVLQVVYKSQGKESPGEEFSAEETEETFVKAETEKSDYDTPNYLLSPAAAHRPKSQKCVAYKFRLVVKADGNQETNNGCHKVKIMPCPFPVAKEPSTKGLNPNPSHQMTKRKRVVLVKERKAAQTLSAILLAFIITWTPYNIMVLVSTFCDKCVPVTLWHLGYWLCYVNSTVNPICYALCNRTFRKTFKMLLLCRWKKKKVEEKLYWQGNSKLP
Sequence of D(3) dopamine receptor (Homo sapiens) (P35462 whole entry): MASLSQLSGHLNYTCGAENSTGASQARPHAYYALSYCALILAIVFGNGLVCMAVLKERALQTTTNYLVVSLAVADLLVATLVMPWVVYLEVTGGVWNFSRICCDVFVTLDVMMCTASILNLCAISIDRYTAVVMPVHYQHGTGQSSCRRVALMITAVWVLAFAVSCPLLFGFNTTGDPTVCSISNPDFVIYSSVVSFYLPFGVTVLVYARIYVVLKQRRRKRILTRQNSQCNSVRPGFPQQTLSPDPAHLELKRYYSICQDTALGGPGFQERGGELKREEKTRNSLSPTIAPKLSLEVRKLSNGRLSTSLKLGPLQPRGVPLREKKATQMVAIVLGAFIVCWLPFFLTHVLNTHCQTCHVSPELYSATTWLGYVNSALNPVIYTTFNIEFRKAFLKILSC

`C[N+]1(C)CCOC(O)(c2ccc(-c3ccc(C4(O)C[N+](C)(C)CCO4)cc3)cc2)C1` (centres undefined) showed an IC50 [1] of 12 nM.

For `Cn1c(-n2nccn2)nc2c(N)ncnc21`, the Ki (Adenosine receptor A1) was 0.4 nM.

In the case of `CCCc1nc(N)c2nc(-n3nccn3)n(C)c2n1`, the Ki (Adenosine receptor A2a) is reported as 83.7 nM, the Ki (Adenosine receptor A1) is reported as 266 nM and the Ki (Adenosine receptor A2b) is reported as 18 nM.

`Cn1c(-n2nccn2)nc2c(N)nccc21` showed a Ki (Adenosine receptor A2a) of 51.6 nM, a Ki (Adenosine receptor A1) of 1060 nM and a Ki (Adenosine receptor A2b) of 518 nM.

With `Cc1nc(N)c2nc(-n3nccn3)n(C)c2n1` the Ki (Adenosine receptor A1) was 10.4 nM.

With `CCn1c(=O)c2c(nc(/C=C/c3ccc(OC)c(OC)c3)n2C)n(CC)c1=O` [ISTRADEFYLLINE] the Ki (Adenosine receptor A1) was > 1000 nM.

For `CCCCc1nc(N)c2nc(-n3nccn3)n(C)c2n1` [ST1535], the inhibition [2] was < 10%, the inhibition (Homo sapiens [3]) was < 10% and the inhibition [4] was < 10%. For the same molecule, the inhibition [5] was < 10%, the inhibition [6] was 24% and the inhibition [7] was < 10%. For the same molecule, the inhibition (Homo sapiens [8]) was < 10%, the inhibition [9] was < 10% and the Ki (Adenosine receptor A2a) was 6.6 nM. The inhibition [10] was < 10%, the inhibition [11] was < 10% and the inhibition [12] was < 10%. The inhibition [13] was < 10%, the inhibition [14] was < 10% and the inhibition [15] was < 10%. The inhibition [16] was < 10%, the inhibition [17] was < 10% and the inhibition [18] was < 10%. For the same molecule, the Ki (Adenosine receptor A3) was > 1000 nM, the inhibition [19] was < 10% and the inhibition [20] was < 10%. For the same molecule, the inhibition [21] was < 10%, the inhibition [22] was < 10% and the inhibition [23] was < 10%. For the same molecule, the inhibition [24] was < 10%, the inhibition [25] was < 10% and the inhibition [26] was < 10%. For the same molecule, the Ki (Adenosine receptor A1) was 71.8 nM, the inhibition [27] was < 10% and the inhibition [28] was < 10%. The inhibition [29] was < 10%, the inhibition [30] was < 10% and the inhibition [31] was < 10%. The inhibition [32] was < 10%, the Ki (Adenosine receptor A2b) was 352 nM and the inhibition [33] was < 10%. The inhibition [34] was < 10% and the inhibition [35] was < 10%.

For `CCCCCc1nc(N)c2nc(-n3nccn3)n(C)c2n1`, the inhibition [2] was < 10%, the inhibition (Homo sapiens [3]) was < 10% and the inhibition [4] was < 10%. The inhibition [5] was < 10%, the inhibition [6] was 34% and the inhibition [7] was < 10%. For the same molecule, the inhibition (Homo sapiens [8]) was < 10%, the inhibition [9] was < 10% and the inhibition [10] was < 10%. For the same molecule, the inhibition [11] was < 10%, the inhibition [12] was < 10% and the inhibition [13] was < 10%. For the same molecule, the inhibition [14] was < 10%, the inhibition [15] was < 10% and the inhibition [16] was < 10%. For the same molecule, the inhibition [17] was < 10%, the inhibition [18] was < 10% and the Ki (Adenosine receptor A3) was 760 nM. The inhibition [19] was < 10%, the inhibition [20] was < 10% and the inhibition [21] was < 10%. For the same molecule, the inhibition [22] was < 10%, the inhibition [23] was < 10% and the inhibition [24] was < 10%. For the same molecule, the inhibition [25] was < 10%, the inhibition [26] was < 10% and the inhibition [27] was < 10%. The inhibition [28] was < 10%, the inhibition [29] was < 10% and the inhibition [30] was < 10%. For the same molecule, the inhibition [31] was < 10%, the inhibition [32] was < 10% and the inhibition [33] was < 10%. The inhibition [34] was < 10% and the inhibition [35] was < 10%.

For `O=C(O)[C@@H]1C[C@H](CP(=O)(O)O)CCN1` [SELFOTEL], the IC50 [36] was 967 nM.

Molecule `NCc1cc(=O)[nH]o1` [MUSCIMOL] has an IC50 [37] of 16 nM.

`Nc1ncnc2c1ncn2[C@@H]1O[C@H](COP(=O)(O)CP(=O)(O)OP(=O)(O)O)[C@@H](O)[C@H]1O` [DIPHOSPHOMETHYLPHOSPHONIC ACID ADENOSYL ESTER] showed an inhibition [38] of 14%.

In the case of `CC(C)c1nc(N)c2nc(-n3nccn3)n(C)c2n1`, the Ki (Adenosine receptor A2a) is reported as 481 nM and the Ki (Adenosine receptor A1) is reported as 2270 nM.

With `Nc1ncnc2c1ncn2[C@H]1C[C@H](O)[C@@H](COP(O)(=S)OP(=O)(O)OP(=O)(O)O)O1` (some centres undefined) the inhibition [38] was 22%.

Work on `Cc1cc2c(nc(-n3nccn3)n2C)c(N)n1` yielded a Ki (Adenosine receptor A2a) of 120 nM, a Ki (Adenosine receptor A1) of 340 nM and a Ki (Adenosine receptor A2b) of 140 nM.

For `O=c1nc2[nH]c3ccccc3nc-2c(=O)[nH]1` [ALLOXAZINE], the Ki (Adenosine receptor A2a) was 935 nM and the Ki (Adenosine receptor A1) was > 100000 nM.
